Earlier results as cited in PubChem BioAssay AID1259410 (Chemical Carcinogenesis Research Information System (CCRIS), 2018).

Test system: rodent tumor promotion studies, tumor incidence
Experiment: CCRIS tumor promotion studies

SMILES: CC(C)=CCC/C(C)=C/CC/C(C)=C/CC/C=C(\C)CC/C=C(\C)CCC=C(C)C
- outcome (Carcinogen: 7,12-DIMETHYLBENZ(A)ANTHRACENE, Doses [Carcinogen]: TOP, Route [Carcinogen]: DERMAL, Route [Promoter]: DERMAL, Species: MOUSE, Strain/Sex: MALE): integumentary system (skin)

SMILES: c1ccc(-c2ccccc2)cc1
- outcome (Carcinogen: N-BUTYL-N-(4-HYDROXYBUTYL)NITROSAMINE, 3817-11-6, Doses [Carcinogen]: 0.05% IN DRINKING WATER FOR 4 WK, Doses [Promoter]: 0, 0.5% IN DIET FOR 32 WK BEGINNING POST CARCINOGEN TREATMENT (STUDY DURATION: 36 WK), Route [Carcinogen]: ORAL, Route [Promoter]: ORAL, Species: RAT, Strain/Sex: F344/MALE): urinary bladder: papilloma, carcinoma

SMILES: CNC[C@H](O)c1cccc(O)c1
- outcome (Carcinogen: N-METHYL-N'-NITRO-N-NITROSOGUANIDINE, 70-25-7, Doses [Carcinogen]: 25 UG/ML IN DRINKING WATER FOR 20 WK, Doses [Promoter]: 0, 6 MG/KG BW IN OLIVE OIL 1/2 D BEGINNING POST CARCINOGEN TREATMENT (STUDY DURATION: 52 WK), Route [Carcinogen]: ORAL, Route [Promoter]: SUBCUTANEOUS, Species: RAT, Strain/Sex: WISTAR/MALE): stomach: adenocarcinoma
- outcome (Carcinogen: N-METHYL-N'-NITRO-N-NITROSOGUANIDINE, 70-25-7, Doses [Carcinogen]: 25 UG/ML IN DRINKING WATER FOR 25 WK, Doses [Promoter]: 0, 6 MG/KG BW 1/2 D FOR 27 WK BEGINNING POST CARCINOGEN TREATMENT (STUDY DURATION: 52 WK), Route [Carcinogen]: ORAL, Route [Promoter]: SUBCUTANEOUS, Species: RAT, Strain/Sex: WISTAR/MALE): glandular stomach: adenocarcinoma

SMILES: C=C1[C@@H](O)[C@@H]2O[C@]3(CC[C@H](/C=C/[C@@H](C)[C@@H]4CC(C)=C[C@@]5(O[C@H](C[C@@](C)(O)C(=O)O)CCC5O)O4)O3)CC[C@H]2O[C@@H]1[C@@H](O)C[C@H](C)[C@H]1O[C@@]2(CCCCO2)CC[C@H]1C (some centres not stated)
- outcome (Carcinogen: 7,12-DIMETHYLBENZ[A]ANTHRACENE, 57-97-6, Doses [Carcinogen]: 100 UG IN 0.1 ML OF ACETONE ONCE, Doses [Promoter]: 0, 5 UG IN 0.1 ML OF ACETONE 2/WK FOR 30 WK BEGINNING 1 WK POST CARCINOGEN DOSE (STUDY DURATION: 31 WK), Route [Carcinogen]: DERMAL, Route [Promoter]: DERMAL, Species: MOUSE, Strain/Sex: CD-1/FEMALE): skin: tumor
- outcome (Carcinogen: N-METHYL-N'-NITRO-N-NITROSOGUANIDINE, 70-25-7, Doses [Carcinogen]: 100 MG/L OF DEIONIZED WATER AS DRINKING WATER FOR 8 WK, Doses [Promoter]: 0.25 MG/L IN DRINKING WATER BEGINNING 1 WK POST CARCINOGEN TREATMENT AND CONTINUING FOR 46 WK THEN 0.5 MG/L FOR 17 WK (S, Route [Carcinogen]: ORAL, Route [Promoter]: ORAL, Species: RAT, Strain/Sex: SPRAGUE-DAWLEY/MALE): glandular stomach: neoplasms

SMILES: Oc1ccc(F)cc1
- outcome (Carcinogen: 7,12-DIMETHYLBENZ(A)ANTHRACENE, Doses [Carcinogen]: TOP, Route [Carcinogen]: DERMAL, Route [Promoter]: DERMAL, Species: MOUSE, Strain/Sex: FEMALE): integumentary system (skin)

SMILES: C[C@]12CC[C@@H]3c4ccc(O)cc4CC[C@H]3[C@@H]1CC[C@@H]2O
- outcome (Carcinogen: N-ETHYL-N-NITROSOUREA, 759-73-9, Doses [Carcinogen]: 12.5 MG/KG IN POLYETHYLENE GLYCOL ONCE, Doses [Promoter]: 0, 0.32 MG/PELLET IMPLANTED IN PERSISTENT ESTRUS MICE 1 WK PRIOR TO CARCINOGEN DOSE (STUDY DURATION: 16 WK), Route [Carcinogen]: INTRAUTERINE, Route [Promoter]: SUBCUTANEOUS, Species: MOUSE, Strain/Sex: CD-1/FEMALE): uterus: adenocarcinoma
- outcome (Carcinogen: N-ETHYL-N-NITROSOUREA, 759-73-9, Doses [Carcinogen]: 50 MG/KG BW IN POLYETHYLENE GLYCOL ONCE AT 10 WK OF AGE, Doses [Promoter]: 0, 0.5% IN CHOLESTEROL PELLET AT 9 WK OF AGE, REMOVED AFTER 8 WK (STUDY DURATION: 15 WK), Route [Carcinogen]: INTRAUTERINE, Route [Promoter]: SUBCUTANEOUS IMPLANT, Species: MOUSE, Strain/Sex: CD-1/FEMALE): uterus: tumor
- outcome (Carcinogen: N-ETHYL-N-NITROSOUREA, 759-73-9, Doses [Carcinogen]: 50 MG/KG BW IN POLYETHYLENE GLYCOL ONCE AT 10 WK OF AGE, Doses [Promoter]: 0, 0.5% IN CHOLESTEROL PELLET AT 11 WK OF AGE, REMOVED AFTER 8 WK (STUDY DURATION: 15 WK), Route [Carcinogen]: INTRAUTERINE, Route [Promoter]: SUBCUTANEOUS IMPLANT, Species: MOUSE, Strain/Sex: CD-1/FEMALE): uterus: tumor
- outcome (Carcinogen: N-ETHYL-N-NITROSOUREA, 759-73-9, Doses [Carcinogen]: 50 MG/KG BW IN POLYETHYLENE GLYCOL ONCE AT 10 WK OF AGE, Doses [Promoter]: 0, 0.5% IN CHOLESTEROL PELLET AT 14 WK OF AGE, REMOVED AFTER 8 WK (STUDY DURATION: 15 WK), Route [Carcinogen]: INTRAUTERINE, Route [Promoter]: SUBCUTANEOUS IMPLANT, Species: MOUSE, Strain/Sex: CD-1/FEMALE): uterus: tumor
- outcome (Carcinogen: N-ETHYL-N-NITROSOUREA, 759-73-9, Doses [Carcinogen]: 50 MG/KG BW IN POLYETHYLENE GLYCOL ONCE AT 10 WK OF AGE, Doses [Promoter]: 0, 0.5% IN CHOLESTEROL PELLET AT 17 WK OF AGE, REMOVED AFTER 8 WK (STUDY DURATION: 15 WK), Route [Carcinogen]: INTRAUTERINE, Route [Promoter]: SUBCUTANEOUS IMPLANT, Species: MOUSE, Strain/Sex: CD-1/FEMALE): uterus: tumor
- outcome (Carcinogen: N-METHYL-N'-NITRO-N-NITROSOGUANIDINE, 70-25-7, Doses [Carcinogen]: 50 PPM FOR 60 MIN, Doses [Promoter]: 0, 20 PPM IN DIET BEGINNING 14 WK POST CARCINOGEN DOSE (STUDY DURATION: 12 MO), Route [Carcinogen]: IMMERSION, Route [Promoter]: ORAL, Species: FISH, Strain/Sex: RAINBOW TROUT): liver: tumor
- outcome (Carcinogen: N-METHYL-N-NITROSOUREA, 684-93-5, Doses [Carcinogen]: 1 MG/100 G BW INJECTED INTO LEFT UTERINE TUBE ONCE, Doses [Promoter]: 0, 25 PPM IN DIET FOR 29 WK BEGINNING 1 WK POST CARCINOGEN DOSE (STUDY DURATION: 30 WK), Route [Carcinogen]: INJECTION, Route [Promoter]: ORAL, Species: MOUSE, Strain/Sex: ICR/FEMALE): uterus: adenocarcinoma
- outcome (Carcinogen: N-METHYL-N-NITROSOUREA, 684-93-5, Doses [Carcinogen]: 40 MG/KG ONCE AT 50 D OF AGE, Doses [Promoter]: 0, 2.5 MG PELLET IMPLANTED ON BACK OF GONADECTOMIZED RATS MAINTAINED ON LOW- IODINE DIET (STUDY DURATION: 30 WK), Route [Carcinogen]: INTRAVENOUS, Route [Promoter]: SUBCUTANEOUS IMPLANT, Species: RAT, Strain/Sex: LONG-EVANS/FEMALE): thyroid: adenoma, carcinoma
- outcome (Carcinogen: N-METHYL-N-NITROSOUREA, 684-93-5, Doses [Carcinogen]: 40 MG/KG ONCE AT 50 D OF AGE, Doses [Promoter]: 0, 2.5 MG PELLET IMPLANTED ON BACK OF GONADECTOMIZED RATS MAINTAINED ON LOW- IODINE DIET (STUDY DURATION: 30 WK), Route [Carcinogen]: INTRAVENOUS, Route [Promoter]: SUBCUTANEOUS IMPLANT, Species: RAT, Strain/Sex: LONG-EVANS/MALE): thyroid: adenoma, carcinoma
- outcome (Doses [Carcinogen]: 0, 125 PPM IN STATIC SOLUTIONS OF WATER FOR 30 MIN ADMINISTERED TO 21 DAY OLD EMBRYOS, Doses [Promoter]: 0, 20 PPM BEGINNING 6 WK POST CARCINOGEN TREATMENT AND CONTINUING FOR 5 WK FOLLOWED BY CONTROL DIET FOR 1 WK THEN 0, 10, Doses [Promoter]: 0, 20 PPM BEGINNING 6 WK POST CARCINOGEN TREATMENT AND CONTINUING FOR 5 WK FOLLOWED BY CONTROL DIET FOR 1 WK THEN 0, 10, Route [Carcinogen]: IMMERSION, Route [Promoter]: ORAL, Species: FISH, Strain/Sex: MT. SHASTA RAINBOW TROUT): liver: hepatocellular carcinoma or mixed carcinoma or hepatocellular adenoma
- outcome (Doses [Carcinogen]: 0.025 PPM IN STATIC SOLUTIONS OF WATER FOR 30 MIN ADMINISTERED TO 21 DAY OLD EMBRYOS, Doses [Promoter]: 0, 20 PPM BEGINNING 6 WK POST CARCINOGEN TREATMENT AND CONTINUING FOR 5 WK FOLLOWED BY CONTROL DIET FOR 1 WK THEN 0, 10, Doses [Promoter]: 0, 20 PPM BEGINNING 6 WK POST CARCINOGEN TREATMENT AND CONTINUING FOR 5 WK FOLLOWED BY CONTROL DIET FOR 1 WK THEN 0, 10, Route [Carcinogen]: IMMERSION, Route [Promoter]: ORAL, Species: FISH, Strain/Sex: MT. SHASTA RAINBOW TROUT): liver: hepatocellular carcinoma or mixed carcinoma
- outcome (Doses [Carcinogen]: 0.25 PPM IN STATIC SOLUTIONS OF WATER FOR 30 MIN, Doses [Promoter]: 0, 5 PPM IN DIET BEGINNING 5 WK POST CARCINOGEN TREATMENT AND ALTERNATED EVERY OTHER WK WITH CONTROL DIET FOR DURATION O, Route [Carcinogen]: IMMERSION, Route [Promoter]: ORAL, Species: FISH, Strain/Sex: MT. SHASTA RAINBOW TROUT): liver: hepatocellular carcinoma or mixed carcinoma
- outcome (Doses [Carcinogen]: 0.5 PPM FOR 30 MIN, Doses [Promoter]: 0, 20 PPM IN DIET BEGINNING 14 WK POST CARCINOGEN DOSE (STUDY DURATION: 12 MO), Route [Carcinogen]: IMMERSION, Route [Promoter]: ORAL, Species: FISH, Strain/Sex: RAINBOW TROUT): liver: tumor

SMILES: CCCCCCCC/C=C\CCCCCCCC(=O)OC
- outcome (Carcinogen: 7,12-DIMETHYLBENZ(A)ANTHRACENE, Doses [Carcinogen]: TOP, Route [Carcinogen]: DERMAL, Route [Promoter]: DERMAL, Species: MOUSE, Strain/Sex: MALE,FEMALE): integumentary system (skin)

SMILES: CCCCCCCCCCCCCCCCCC(=O)O[C@@]12C[C@@H](C)[C@@]3(O)[C@@H](C=C(CO)C[C@]4(O)C(=O)C(C)=C[C@@H]34)[C@@H]1C2(C)C
- outcome (Carcinogen: 7,12-DIMETHYLBENZ[A]ANTHRACENE, 57-97-6, Doses [Carcinogen]: 100 NMOL ONCE, Doses [Promoter]: 0, 100 NMOL 2/WK FOR 39 WK (STUDY DURATION: 39 WK), Route [Carcinogen]: DERMAL, Route [Promoter]: DERMAL, Species: MOUSE, Strain/Sex: NMRI): skin: tumor
